Here are results for three molecules from US9284325B2, “Spectinamides as anti-tuberculosis agents” (UNIVERSITY OF TENNESSEE RESEARCH FOUNDATION, priority 2009, dated 2016).

≈ marks a conversion by molar mass, not a printed value. Like-named read-outs stand apart in the source and are kept apart here.

The test system of series [1] is Strenotrophomonas maltophilia ATCC 13637. Kind of series: MIC determination by microbroth dilution. The format is cell-based.
Series [2] relates to Strep. pneumoniae DAW27 or strain R6. Kind of series: MIC determination by microbroth dilution. It counts as cell-based, Streptococcus pneumoniae. The settings on record: Streptococcus pneumoniae; Strep. pneumoniae DAW27 or strain R6 (for 1443-1544); read-out: MIC S. pneumoniae. (In general: Broth dilution looks for growth in wells or tubes with falling amounts of substance.)
In series [3] the test system is Vero epithelial cells. The settings on record: African green monkey.
The test system of the next series is E. coli K12. Kind of series: MIC determination by microbroth dilution. It counts as cell-based, Escherichia coli. The settings on record: Escherichia coli, K12.
Series [4] has as its system protein synthesis in whole cell M. bovis BCG. It counts as cell-based.
In series [5] the test system is S. aureus 8325 or strain ATCC 29213. Kind of series: MIC determination by microbroth dilution. It counts as cell-based, Staphylococcus aureus. Particulars: Staphylococcus aureus, ATCC29213; S. aureus 8325 or strain ATCC 29213 (for 1471-1544).
For the next series, the system named is P. aeruginosa PAO1. Kind of series: MIC determination by microbroth dilution. The format is cell-based, Pseudomonas aeruginosa. The settings on record: Pseudomonas aeruginosa.
Another series concerns Borrelia burgdorferi. The settings on record: spirochete Borrelia burgdorferi, Criswell et al.; cited from earlier work.
Series [6] deals with Proteus mirabilis ATCC 25933. As to the kind of experiment: MIC determination by microbroth dilution. It counts as cell-based. Particulars: ATCC25933.
For another series, the system named is E. coli ribosomes. It counts as biochemical. The settings on record: for IC50, 50% inhibition of luciferase biosynthesis in S30 assay: E. coli S30 transcription/translation assay.
Another series concerns M. tuberculosis H37Rv. As to the kind of experiment: MIC determination by microbroth dilution, anti-tuberculosis activity. It counts as cell-based, Mycobacterium tuberculosis.
The test system of series [7] is Strep. pyogenes ATCC 700294. As to the kind of experiment: MIC determination by microbroth dilution. It counts as cell-based, Streptococcus pyogenes. Particulars: Streptococcus pyogenes, ATCC700294, read-out: MIC S. pyogenes.
Series [8] deals with Acinetobacter baumannii ATCC 19606. Kind of series: MIC determination by microbroth dilution. The format is cell-based. Particulars: ATCC19606.
For another series, the system named is E. faecalis ATCC 33186. Kind of series: MIC determination by microbroth dilution. It counts as cell-based, Enterococcus faecalis. The settings on record: Enterococcus faecalis, ATCC33186.
Series [9] concerns Klebsiella pneumoniae ATCC 33495. As to the kind of experiment: MIC determination by microbroth dilution. The format is cell-based. Particulars: ATCC33495.
The nature of series [10]: Cytotoxicity, MTT cell proliferation assay. Particulars: African green monkey, Vero epithelial cells (ATCC CCL-81). For orientation: Formazan colour is commonly taken as a measure of viable cells.
For series [11], the system named is Proteus vulgaris ATCC 33420. Kind of series: MIC determination by microbroth dilution. It counts as cell-based. The settings on record: ATCC33420.
Another series relates to B. anthracis Sterne 34F2. Kind of series: microbe, parasite or virus in culture. It counts as cell-based, Bacillus anthracis. Particulars: Bacillus anthracis, STERNE34F2, read-out: MIC B. anthracis 34F2.
Series [12] has as its system Burkholderia cepacia ATCC 25416. Kind of series: MIC determination by microbroth dilution. The format is cell-based. The settings on record: ATCC25416, read-out: MIC B. cepcia.
The next series has as its system E. coli K12 ΔtolC. As to the kind of experiment: microbe, parasite or virus in culture. It counts as cell-based. The settings on record: Escherichia coli, read-out: MIC E. coli K12 ΔtolC.
Series [13] relates to Vero epithelial cells. As to the kind of experiment: Cytotoxicity, MTT cell proliferation assay. The settings on record: Vero IC50 / M. tuberculosis MIC.

In the case of `[H]/N=C(/N)N[C@H]1[C@H](O)[C@@H](O)[C@H](O[C@@H]2O[C@@H](C)[C@](O)(C=O)[C@H]2O[C@@H]2O[C@@H](CO)[C@H](O)[C@@H](O)[C@@H]2NC)[C@@H](N/C(N)=N\[H])[C@@H]1O` [Streptomycin, reference compound], the MIC was 3.12 µg/mL (≈ 5.36 µM) in series [1]; 12.5 µg/mL (≈ 21.5 µM) in series [2]; 0.8 µg/mL (≈ 1.38 µM) against E. coli K12; 0.4 µg/mL (≈ 0.688 µM) in series [5]; 25 µg/mL (≈ 43 µM) against P. aeruginosa PAO1; 50 µg/mL (≈ 86 µM) in series [6]. Moreover, the MIC in [7] is 25 µg/mL (≈ 43 µM); in series [8] it was over 200 µg/mL; against E. faecalis ATCC 33186 it was 50 µg/mL (≈ 86 µM); in series [9], over 200 µg/mL; in series [11] it was 1.6 µg/mL (≈ 2.75 µM); in the series on B. anthracis Sterne 34F2, 0.8 µg/mL (≈ 1.38 µM). Moreover, the MIC was over 200 µg/mL in series [12] and 1.6 µg/mL (≈ 2.75 µM) with E. coli K12 ΔtolC. The “therapeutic index (IC50 divided by the MIC)” value in the series with Vero epithelial cells [3] is 7680.5. Further, the “inhibition of protein synthesis” value in series [4] is recorded as “inhibited protein synthesis”. Also, the “frequency at which resistance arises” value in the series with Borrelia burgdorferi was ≥ 10^−7. Further, the “IC50, 50% inhibition of luciferase biosynthesis in S30 assay” value with E. coli ribosomes was determined as 0.27 µg/mL. In addition, the “Activity (MIC) of 1329 compared to streptomycin” value with M. tuberculosis H37Rv is 0.2. In series [10], this molecule gave an IC50 at 72 h of 1540 µg/mL (≈ 2640 µM).
`CC[C@@H](CO)NCCN[C@@H](CC)CO` [Ethambutol] came in with an IC50 at 72 h in series [10] of 732 µg/mL (≈ 3580 µM). For the same molecule, the “therapeutic index (IC50 divided by the MIC)” value in the series on Vero epithelial cells [13] is listed as 913.8.
For `CN[C@@H]1[C@H](O)[C@H](NC)[C@H]2O[C@@]3(O)C(=O)C[C@@H](C)O[C@H]3O[C@@H]2[C@H]1O` [Spectinomycin, reference compound], the MIC is over 200 µg/mL in series [1]; 50 µg/mL (≈ 150 µM) in series [2]; 12.5 to 50 µg/mL (≈ 37.6 to 150 µM) in the series on E. coli K12; 25 µg/mL (≈ 75.2 µM) in series [5]; 100 µg/mL (≈ 301 µM) with P. aeruginosa PAO1; over 200 µg/mL in series [6]. Besides, the MIC in the series on M. tuberculosis H37Rv (Mycobacterium tuberculosis, H37RV, 168 h, read-out: MIC) was 25 µg/mL (≈ 75.2 µM); in series [7] it was 25 µg/mL (≈ 75.2 µM); in series [8], over 200 µg/mL; in the series on E. faecalis ATCC 33186, 50 µg/mL (≈ 150 µM); in series [9], 50 µg/mL (≈ 150 µM); in series [11], 50 µg/mL (≈ 150 µM). For the same molecule, the MIC is 25 µg/mL (≈ 75.2 µM) with B. anthracis Sterne 34F2, over 200 µg/mL in [12] and 12.5 µg/mL (≈ 37.6 µM) with E. coli K12 ΔtolC. The “therapeutic index (IC50 divided by the MIC)” value in the series with Vero epithelial cells [3] was determined as 41.5. Further, in the series with Borrelia burgdorferi, the “frequency at which resistance arises” value is recorded as 10^−6. For the same molecule, the IC50 with E. coli ribosomes (E. coli S30 system, FIG. 4, read-out: concentration causing 50% reduction in the synthesis of luciferase) was 900 nM. The “IC50, 50% inhibition of luciferase biosynthesis in S30 assay” value in the series on E. coli ribosomes was determined as 0.32 µg/mL. The molecule also gave an IC50 at 72 h in [10] of 1030 µg/mL (≈ 3100 µM).
